Measured values: patent publication US12282021B2, “Stratification of acute myeloid leukaemia patients for sensitivity to kinase pathway inhibitor therapy” (KINOMICA LIMITED, priority 2017, dated 2025)

System: AML primary cells
Assay: Viability assay: ex-vivo drug testing of AML primary cells with kinase inhibitors (Guava ViaCount, 72h)
Type: cell-based, human
Conditions: for AML cases whose viability was reduced by >50% relative to DMSO control / number of AML cases whose viability was reduced by >50% relative to DMSO control / sensitivity of M4-Like and CDs+ cases versus M1-Like and CDs− cases (cell viability): 72h; for AML cases whose viability was reduced by >50% relative to DMSO control / number of AML cases whose viability was reduced by >50% relative to DMSO control: ex vivo; for sensitivity of M4-Like and CDs+ cases versus M1-Like and CDs− cases (cell viability): 1 μM PAKi, 10 μM FLT3/PKCi (FIG. 5A-B)
Description: The study was performed in 36 randomly selected primary samples of mononuclear cells extracted from the peripheral blood of AML patients at diagnosis. Experiments were performed as described below to determine the in vitro viability of the cells in response to treatment with inhibitors of the kinases FLT3/PKC (midostaurin, FLT3/PKCi), PAK (PF-3758309 PAKi), CK2 (silmitasertib CK2i) and MEK (trametinib, MEKi) The P38 inhibitor (P38i) TAK-715 was included as a negative control. Cells obtained from of 36 AML patients with well annotated clinical data were treated with these compounds for 72h.
The study was performed in 36 primary samples of mononuclear cells extracted from the peripheral blood of AML patients at diagnosis. Samples were randomly selected from the BCI tissue bank collection. Initially, 45 samples were included in the study but nine were later excluded because these were not viable in the ex-vivo experiments. Material availability allowed proteomics and mass cytometry analysis of 30 samples and DNA sequencing of 27 samples. Ex-vivo drug testing was performed in quadruplicate sampling replicates and viability values averaged and expressed relative to vehicle control.
Ex-vivo drug testing of AML primary cells was as previously described in Casado P, Rodriguez-Prados J C, Cosulich S C, et al. Kinase-substrate enrichment analysis provides insights into the heterogeneity of signaling pathway activation in leukemia cells. Sci Signal. 2013; 6(268):rs6. Briefly, cells were re-suspended in MS-5 conditioned IMDM medium, seeded in 96 well plates and treated with vehicle or 1 to 10000 nM of the indicated inhibitors for 72h. Cells were stained with Guava ViaCount reagent and cell number and viability was measured. Flow cytometry data were analyzed using CytoSoft (v2.5.7).
Mass cytometry was used to simultaneously measure the surface expression of 17 differentiation markers (CD3, CD7, CD11b, CD14, CD15, CD16, CD19, CD33, CD34, CD38, CD44, CD45, CD64, CD117, CD123, CD184, HLA-DR) in mononuclear cells extracted from the peripheral blood of 30 AML patients. Label free quantitative phosphoproteomics based on TiO2 phosphoenrichment was used to quantify>5,000 phosphorylation sites in the same AML primary samples and KSEA technology was applied to infer kinase activity from the phosphoproteomics data. Gene ontology enrichment was calculated based on the genes that code for the proteins where the phosphorylation sites were detected using DAVID software. Guava EasyCyte Flow Cytometry was used to determine cell viability after the treatment of the same patient samples with 5 kinase inhibitors (PF-3758309, Midostaurin, silmitasertib, trametinib and TAK715 aiming to target the kinases PAK, Flt-3, Casein Kinase 2, MEK and P38, respectively).

[1] = 15 cases positive for RAS/MEK/ERK activation

Row | Structure (SMILES) | AML cases whose viability was reduced by >50% relative to DMSO control (1 μM dose, 36 AML cases) [%] | number of AML cases whose viability was reduced by >50% relative to DMSO control (1 μM dose, 36 AML cases) | sensitivity of M4-Like and CDs+ cases versus M1-Like and CDs− cases (cell viability) | effect of FLT3-ITD status on the responses of cells (FIG. 7F and FIG. 14B) | sensitivity of samples positive for either CDs or phosphorylation on GSK3A or PCKδ versus other cases (FIG. 7F and FIG. 14B) | cases positive for RAS/MEK/ERK activation that showed high responses [1] [%] | number of cases positive for RAS/MEK/ERK activation that showed high responses [1] | potency relative to the other compounds tested (1 μM dose, 36 AML cases)
1 | O=C(O)c1ccc2c(c1)nc(Nc1cccc(Cl)c1)c1ccncc12 [CK2i, silmitasertib] | 22 | 8/36 |  |  |  |  |  | 
2 | CO[C@@H]1[C@H](N(C)C(=O)c2ccccc2)C[C@H]2O[C@]1(C)n1c3ccccc3c3c4c(c5c6ccccc6n2c5c31)C(=O)NC4 [FLT3/PKCi, midostaurin] | 25 | 9/36 | more sensitive | did not have an effect | more sensitive |  |  | 
3 | CC(=O)Nc1cccc(-n2c(=O)n(C3CC3)c(=O)c3c(Nc4ccc(I)cc4F)n(C)c(=O)c(C)c32)c1 [MEKi, trametinib] | 22 | 8/36 |  |  |  | ~50 | 7/15 | 
4 | CCc1nc(-c2cccc(C)c2)c(-c2ccnc(NC(=O)c3ccccc3)c2)s1 [P38i, TAK-715] | 8 | 3 AML cases | no differences |  |  |  |  | 
5 | Cc1nc(Nc2[nH]nc3c2CN(C(=O)N[C@H](CN(C)C)c2ccccc2)C3(C)C)c2sccc2n1 [PAKi, PF-3758309] | 50 | 18/36 | more sensitive |  |  |  |  | most potent of all the compounds tested
